Experimental data reported in publication PMC3949622, “Macrocyclic Pyridyl Polyoxazoles: Structure-Activity Studies of the Aminoalkyl Side-Chain on G-Quadruplex Stabilization and Cytotoxic Activity” (Molecules, 2013).
Each block holds one molecule with its values, some of them ahead of it.

Tests used:
RPMI 8402 cells = test: MTT cytotoxicity assay, RPMI 8402; format: cell-based, human; conditions: continuous exposure for four days
Protocol: (§1) Each N,N-dimethylamino-substituted macrocycle was also evaluated for cytotoxic activity against a human lymphoblastoma RPMI 8402 and a human epidermoid carcinoma KB3-1 cell line (Table 2). The results from these assays are informative about the relationship of structure to cytotoxic activity among the PyPX macrocyclic G-quadruplex stabilizers. […] An explanation for this observation is not clear at this time. The three-carbon analogs 12 and 22 have nearly equivalent activity at both positions, but these longer-chain analogs are generally lower in activity than the two-carbon analogs. Attachment of the dimethylamino group directly to the phenyl ring (8 and 19) leads to compounds having the greatest cytotoxic potency at their respective points of attachment. […] In general analogs that have an even number (0 or 2) of methylene spacer groups are more cytotoxic than those with an odd number. […] Moving the side-chain away from the phenyl ring and onto an oxazole ring also fails to improve cytotoxic activity.
(§2) Cytotoxicity was determined using the MTT-microtiter plate tetrazolinium assay (MTA). The human lymphoblast RPMI 8402 cell line was provided by Dr. Toshiwo Andoh (Aichi Cancer Center Research Institute, Nagoya, Japan). The KB3-1 cell line was obtained from K.V. Chin (The Cancer Institute of New Jersey, New Brunswick, NJ, USA). The cytotoxicity assay was performed using 96-well microtiter plates. Cells were grown in suspension at 37 °C in 5% CO2 and maintained by regular passage in RPMI medium supplemented with 10% heat inactivated fetal bovine serum, L-glutamine (2 mM), penicillin (100 U/mL), and Streptomycin (0.1 mg/mL). For determination of IC50 values, cells were exposed continuously for four days to varying concentrations of drug, and MTT assays were performed at the end of the fourth day. […] All assays were performed at least twice in six replicate wells.

[1] = test system: Salmon testes (ST) duplex DNA; test: UV melting of salmon testes duplex DNA; format: binding; conditions: for ΔTtran, salmon testes duplex DNA: change in Ttran induced by compound, UV melting at 260 nm, pH 7.5, K+ 150 mM, uncertainty ± 0.5 °C; for ΔTtran, salmon testes duplex DNA / Ttran, salmon testes duplex DNA: ST DNA 15 µM base pair, drug 15 µM; for Ttran, salmon testes duplex DNA: first-derivative UV melting at 260 nm, 10 mM potassium phosphate pH 7.5, total K+ 150 mM, no drug: 86.6
Protocol: (§3) Each compound was evaluated for its ability to selectively bind and stabilize G-quadruplex DNA in the presence of K^+ ions (150 mM). Salmon testes (ST) DNA was employed as a model of duplex DNA and the human telomeric sequence d[T2G3(T2AG3)3A], denoted as hTel, was used as a model of quadruplex DNA. This sequence has been shown by Patel and co-workers, to exist as an intramolecular (3 + 1) G-quadruplex in which three strands are oriented in one direction and the fourth is oriented in the opposite direction in K^+ solution [35]. The first-derivative forms of the UV melting profiles for ST DNA and hTel DNA were recorded in the absence and presence of the various macrocycles. The ligand-induced changes, if any, in the transition temperature (Ttran) corresponding to the maxima (for quadruplex DNA) or minima (for duplex DNA) of these first-derivative melting profiles are listed in Table 1 for each macrocycle. With the exception of 8 which has a slight (<1 °C) destabilizing effect, none of the other macrocycles alters the thermal stability of ST duplex DNA to any significant extent and any observed changes in Ttran are within the experimental uncertainty. This observation is consistent with little or no duplex DNA binding by these macrocycles. Similar behavior has been observed for other macrocyclic pyridyl polyoxazoles. Temperature-Dependent Spectrophotometry. Temperature-dependent absorption experiments were conducted on an AVIV Model 14DS Spectrophotometer (Aviv Biomedical, Lakewood, NJ, USA) equipped with a thermoelectrically controlled cell holder. Quartz cells with a path length of 1.0 cm were used for all the absorbance studies. Temperature-dependent absorption profiles were acquired at either 260 nm (for ST duplex DNA) or 295 nm (for hTel quadruplex DNA) with a 5 s averaging time. The temperature was raised in 0.5 °C increments, and the samples were allowed to equilibrate for 1 min at each temperature setting. In the quadruplex melting studies, the hTel concentration was 5 µM in strand (120 μM in nucleotide). When present in these quadruplex studies, the drug concentrations were 20 µM. In the duplex melting studies the ST DNA concentrations were 15 µM base pair (30 μM in nucleotide) and, when present, the drug concentrations were 15 µM. The buffer for all the UV melting experiments contained 10 mM potassium phosphate (pH 7.5) and sufficient KCl (132 mM) to bring the total K^+ concentration to 150 mM. Prior to their use in the UV melting experiments, all nucleic acid solutions were preheated at 90 °C for 5 min and slowly cooled to room temperature over a period of 4 hr.

[2] = test system: human telomeric sequence d[T2G3(T2AG3)3A] (hTel) quadruplex DNA; test: UV melting of hTel quadruplex DNA (G-quadruplex stabilization); format: binding; conditions: hTel 5 µM strand, drug 20 µM; for ΔTtran, hTel quadruplex DNA: change in Ttran induced by compound, UV melting at 295 nm, pH 7.5, K+ 150 mM, uncertainty ± 0.5 °C; for Ttran, hTel quadruplex DNA: first-derivative UV melting at 295 nm, 10 mM potassium phosphate pH 7.5, total K+ 150 mM, no drug: 64.6
Protocol: as §3

KB3-1 cells = test: MTT cytotoxicity assay, KB3-1; format: cell-based, human; conditions: continuous exposure for four days, means of at least two determinations ± standard deviation, read-out: IC50, KB3-1 wt.
Protocol: as §1, §2

[3] = Water-solubility (qualitative); format: physicochemical; conditions: qualitative statement, method not given
[4] = means of at least two determinations ± standard deviation

water-solubility [3]: significantly less water-soluble
SMILES: CN(C)c1cc2cc(c1)CNC(=O)c1coc(n1)-c1coc(n1)-c1cccc(n1)-c1nc(co1)-c1nc(co1)C(=O)NC2 [Compound 19, Pyridyl tetraoxazole macrocycle with a 5-N,N-dimethylamino group on the phenyl ring]
IC50 (RPMI 8402 cells; [4]): 60 ± 10 nM
ΔTtran, salmon testes duplex DNA [1]: −0.5 °C
Ttran, salmon testes duplex DNA [1]: 86.1 °C
ΔTtran, hTel quadruplex DNA [2]: 15.5 °C
Ttran, hTel quadruplex DNA [2]: 80.1 °C
IC50 (KB3-1 cells): 30 nM

SMILES: CN(C)CCc1oc2nc1C(=O)NCc1cccc(c1)CNC(=O)c1nc(oc1CCN(C)C)-c1coc(n1)-c1cccc(n1)-c1nc-2co1 [Compound 37, Pyridyl tetraoxazole macrocycle with two 2-(N,N-dimethylamino)ethyl side chains]
IC50 (RPMI 8402 cells; [4]): 1500 nM
ΔTtran, salmon testes duplex DNA [1]: −0.4 °C
Ttran, salmon testes duplex DNA [1]: 86.2 °C
ΔTtran, hTel quadruplex DNA [2]: 1.6 °C
Ttran, hTel quadruplex DNA [2]: 66.2 °C
IC50 (KB3-1 cells): 400 ± 100 nM

water-solubility [3]: significantly less water-soluble
SMILES: CN(C)c1ccc2cc1CNC(=O)c1coc(n1)-c1coc(n1)-c1cccc(n1)-c1nc(co1)-c1nc(co1)C(=O)NC2 [Compound 8, Pyridyl tetraoxazole macrocycle with a 4-(N,N-dimethylamino) group on the phenyl ring]
IC50 (RPMI 8402 cells; single determination): 120 nM
ΔTtran, salmon testes duplex DNA [1]: −0.9 °C
Ttran, salmon testes duplex DNA [1]: 85.7 °C
destabilizing effect on ST duplex DNA (thermal stability) ([1]; size of the decrease in Ttran): < 1 °C
ΔTtran, hTel quadruplex DNA [2]: 20.5 °C
Ttran, hTel quadruplex DNA [2]: 85.1 °C
IC50 (KB3-1 cells): 30 nM

SMILES: CN(C)CCCc1cc2cc(c1)CNC(=O)c1coc(n1)-c1coc(n1)-c1cccc(n1)-c1nc(co1)-c1nc(co1)C(=O)NC2 [Compound 22, Pyridyl tetraoxazole macrocycle with a 5-[3-(N,N-dimethylamino)propyl] group on the phenyl ring]
IC50 (RPMI 8402 cells; [4]): 500 ± 100 nM
ΔTtran, salmon testes duplex DNA [1]: −0.4 °C
Ttran, salmon testes duplex DNA [1]: 86.2 °C
ΔTtran, hTel quadruplex DNA [2]: 28.6 °C
Ttran, hTel quadruplex DNA [2]: 93.2 °C
IC50 (KB3-1 cells): 220 ± 130 nM

SMILES: CN(C)CCCc1ccc2cc1CNC(=O)c1coc(n1)-c1coc(n1)-c1cccc(n1)-c1nc(co1)-c1nc(co1)C(=O)NC2 [Compound 12, Pyridyl tetraoxazole macrocycle with a 4-[3-(N,N-dimethylamino)propyl] group on the phenyl ring]
IC50 (RPMI 8402 cells; [4]): 400 nM
ΔTtran, salmon testes duplex DNA [1]: −0.4 °C
Ttran, salmon testes duplex DNA [1]: 86.2 °C
ΔTtran, hTel quadruplex DNA [2]: 7.1 °C
Ttran, hTel quadruplex DNA [2]: 71.7 °C
IC50 (KB3-1 cells): 250 ± 70 nM

SMILES: CN(C)Cc1cc2cc(c1)CNC(=O)c1coc(n1)-c1coc(n1)-c1cccc(n1)-c1nc(co1)-c1nc(co1)C(=O)NC2 [Compound 20, Pyridyl tetraoxazole macrocycle with a 5-(N,N-dimethylaminomethyl) group on the phenyl ring]
IC50 (RPMI 8402 cells; [4]): 7000 ± 4200 nM
ΔTtran, salmon testes duplex DNA [1]: −0.4 °C
Ttran, salmon testes duplex DNA [1]: 86.2 °C
ΔTtran, hTel quadruplex DNA [2]: 0.1 °C
Ttran, hTel quadruplex DNA [2]: 64.7 °C
IC50 (KB3-1 cells): 5500 ± 700 nM

SMILES: CN(C)CCc1ccc2cc1CNC(=O)c1coc(n1)-c1coc(n1)-c1cccc(n1)-c1nc(co1)-c1nc(co1)C(=O)NC2 [Compound 11, Pyridyl tetraoxazole macrocycle with a 4-[2-(N,N-dimethylamino)ethyl] group on the phenyl ring]
IC50 (RPMI 8402 cells; [4]): 500 ± 400 nM
ΔTtran, salmon testes duplex DNA [1]: −0.4 °C
Ttran, salmon testes duplex DNA [1]: 86.2 °C
ΔTtran, hTel quadruplex DNA [2]: 24.6 °C
Ttran, hTel quadruplex DNA [2]: 89.2 °C
IC50 (KB3-1 cells): 70 ± 70 nM
